Reference: US20250032460A1, “METHODS OF TREATING NEUROLOGICAL DISORDERS” (MapLight Therapeutics, Inc., priority 2021, published 2025)

What was measured:
[1] = in vivo; settings: cynomolgus monkey, po
Method: The following example characterized the pharmacokinetics (PK) of Compound 1 in Cynomolgus Monkey following single oral (PO) Compound 1 dose administration. The compound was administered via oral gavage at 0.3 mg/kg and 1 mg/kg, formulated as solution in saline. After dosing, plasma was collected to characterize the PK profiles of Compound 1.

[2] = Post-procedure plasma exposure (salivation study); format: in vivo, Sprague Dawley rats; settings: male, Sprague Dawley, rat, in vivo, 1.5 mg/kg, Plasma Concentration 1-Hour Post-procedure (mean value), Compound 1
Method: An in vivo primary pharmacology study evaluating the fesoterodine fumarate dose-response antagonistic effect on Compound 1 induced salivation in anaesthetized male Sprague Dawley rats was conducted. […] Intravenous fesoterodine doses were administered at […]. Fesoterodine was dosed 10 minutes prior to dosage of Compound 1. All animals were normal with no observed abnormality detected in clinical signs or behavior. Salivation was measured by using oral dry swab in anesthetized rats with the calculated difference between the dry swab weight and the wet swab weight indicating the weight of saliva produced. Samples were collected post-dosing for one hour at 10-minute intervals.
At the end of the study period, plasma samples were collected to measure exposure of Compound 1, fesoterodine fumarate, and fesoterodine active metabolite 5-hydroxymethyl tolterodine (5-HMT), also referred to as desfesoterodine, is summarized in Table 2.

[3] = Plasma concentrations during 7-day oral dosing in beagle dogs; format: in vivo; settings: male, beagle, dog, in vivo, po, 1.5 mg/kg/day
[4] = Plasma pharmacokinetics after single-dose intravenous administration in rats; format: in vivo, Sprague Dawley rats; settings: rat, in vivo, iv, 1.5 mg/kg
Method: The plasma concentration-time profile was evaluated for fesoterodine active metabolite desfesoterodine and Compound 1 in male Sprague Dawley rats following single-dose intravenous administration of fesoterodine (0.25 mg/kg) and Compound 1 (0.5 mg/kg and 1.5 mg/kg) alone and single-dose co-administration. Plasma exposures of desfesoterodine were similar following administration of fesoterodine alone and in combination with Compound 1.

[5] = Plasma concentration of Compound 1, Mean

`Cc1noc([C@@]23CNC[C@@H]2C3)n1` [Compound 1, 1-(3-methyl-[1,2,4]oxadiazol-5-yl)-(1R,5R)-3-aza-bicyclo[3.1.0]hexane] gave an AUC(0-inf) ([1]; 0.3 mg/kg) of 212 ng·h/mL, an AUC(0-t) ([1]; 0.3 mg/kg) of 208 ng·h/mL and a Cmax ([1]; 0.3 mg/kg) of 216 ng/mL. For the same compound, the Tmax ([1]; 0.3 mg/kg) was 0.417 h, the half-life ([1]; 0.3 mg/kg) was 2.82 h and the AUC(0-inf) ([1]; 1 mg/kg) was 988 ng·h/mL. The AUC(0-t) ([1]; 1 mg/kg) was 982 ng·h/mL, the Cmax ([1]; 1 mg/kg) was 686 ng/mL and the Tmax ([1]; 1 mg/kg) was 1 h. For the same compound, the half-life ([1]; 1 mg/kg) was 2.28 h, the concentration at 1 h [2] was 608 ng/mL and the “Plasma concentration of Compound 1, Mean” value ([3]; 1 h) was 387 ng/mL. For the same compound, the “Plasma concentration of Compound 1, Mean” value ([3]; 2 h) was 470.6 ng/mL, the “Plasma concentration of Compound 1, Mean” value ([3]; 4 h) was 99.48 ng/mL and the “Plasma concentration of Compound 1, Mean” value ([3]; 8 h) was 17.098 ng/mL. For the same compound, the concentration at 1 h [3, 5] was 378 ng/mL, the concentration at 2 h [3, 5] was 288 ng/mL and the concentration at 4 h [3, 5] was 98.6 ng/mL. For the same compound, the concentration at 8 h [3, 5] was 14.7 ng/mL, the “Vss as fold of total body water (0.7 L/kg)” value ([4]; male, Sprague Dawley) was “approximately 2.4 fold” and the “plasma clearance as % of the normal liver blood flow in rats (55 mL/min/kg)” value ([4]; male, Sprague Dawley) was “approximately 50%”. The AUC(0-t) ([4]; male, Sprague Dawley, AUClast of Compound 1) was 917 ng·h/mL, the C0 ([4]; male, Sprague Dawley, C0 of Compound 1) was 1520 ng/mL and the clearance ([4]; male, Sprague Dawley, CL of Compound 1) was 27.2 mL/min/kg. The half-life ([4]; male, Sprague Dawley, T1/2 of Compound 1) was 0.83 h, the Vd ([4]; male, Sprague Dawley, VSS of Compound 1) was 1.71 L/kg and the “PK parameters of Compound 1, single-agent vs co-administration with fesoterodine” value [4] was “comparable”.
